Assay [1] has as its system ASPP2. As to conditions: cells treated with UO126, cell line not stated.
Assay [2] relates to transactivation function of p53. Nature of the assay: Transactivation assay, bax-luciferase reporter, Saos2 cells. It is filed as cell-based. The following applies: EGF 20 ng/ml + 20% FCS, UO126 20 μM. As to the method:
FIG. 27 Endogenous MAPK is necessary for ASPP1 and ASPP2 to stimulate the activity of p53. (A) Saos2 cells were co-transfected with bax-luciferase, ASPP2 and p53. After transfection, medium containing EGF (20 ng/ml) and 20% FCS were added to the cells, in the presence or absence of the MAPK inhibitor UO126 (20 μM). The negative control contained an equal volume of DMSO. […] (B) The putative MAPK phosphorylation sites of ASPP1 and ASPP2 were mutated to alanine, to generate ASPP1 (S671A), ASPP1 (S746), ASPP2 (S698A) and ASPP2 (S827A). Wild-type and mutant ASPP2 (B) or ASPP1 (C) were co-transfected with p53 and Bax-luciferase reporter in the presence or absence of RafCX (B) or K-rasV12 (C) in Saos2 cells, as indicated. Expression levels of ASPP1, p53 and K-rasV12 are shown in the right panel. PCNA was used as a loading control. The graph represents the fold over p53 and ASPP1 or ASPP2 taken from three independent experiments. FCS, foetal calf serum; EGF, epidermal growth factor; and
Saos2 cells (7×10^5) were plated 24 hours prior to transfection in 6-cm-diameter dishes. All transactivation assays contained 1 μg of reporter plasmid. […] The fold increase of p53 and ASPP by HRasV12/K-RasV12/RafCX was determined by the activity of p53 and ASPP in combination with RasV12/RafCX divided by the activity of p53 and ASPP alone.
On the technique in general: Reporter assays use an easily measured gene product as a stand-in for the process of interest.

In assay [3] the test system is ASPP2. The following applies: MCF7, 20% FCS and EGF, cycloheximide 50 μg/ml, with versus without UO126. On the procedure: (§1) Wild-type ASPP2 (A) or mutant ASPP2 (S827A) (B) were transfected in Saos2 cells in the presence or absence of H-rasv12. 16 hours after transfection, the cells were treated with cycloheximide (50 μg/ml) and lysates were made at the times indicated after cycloheximide treatment. The expression of ASPP2 and H-rasV12 were detected with antibodies V5 or HA, respectively. Actin was used as a loading control. (C) MCF7 cells were starved of serum for 24 hours in 0.5% FCS before treatment with 50 μg/ml cycloheximide (CHX) and 20% FCS and EGF, in the presence (right panel) or absence (left panel) of UO126 for the times indicated. 4 mg of lysate was immunoprecipitated with anti-ASPP2 antibody DX54.10 and the presence of ASPP2 was detected by Western blot with the polyclonal ASPP2/77 antibody (top lanes). Phosphorylated MAPK was detected with phospho-specific MAPK antibody and the total MAPK was detected with a MAPK antibody. The intensity of the. ASPP2 protein immunoprecipitated was quantified and the bands at 0 hours of CHX addition was set as 100 for both cells, as shown by the graph (right panel). (D) MDA Panc3 cells were treated with 50 μg/ml cycloheximide, 20 μM UO126 or both cycloheximide and UO126 for the times indicated. The lysate was resolved on SDS-PAGE gels and ASPP1 and ASPP2 protein levels were detected with mAbASPP1.54.2 and DX54.10 antibodies, respectively, and Mcl-1 was detected with an anti-Mcl1 polyclonal antibody.
(§2) Cells were either transfected with the appropriate expression plasmids or treated with 20 ng/ml EGF and 20 μM UO126 as indicated, the day prior to cycloheximide treatment. Cycloheximide was added to cells at a final concentration of 50 μg/ml in the appropriate medium. Cells were harvested and lysed at the time points indicated.

The test system of a further assay is ASPP1 and ASPP2. On the procedure:
as §1, §2

Setting [4] is: MDA Panc3, cycloheximide 50 μg/ml + UO126 20 μM compared to cycloheximide alone.

Like-named read-outs stand apart in the source and are kept apart here.

On to `N#CC(=C(/N)Sc1ccccc1N)/C(C#N)=C(/N)Sc1ccccc1N` [UO126], for which the ASPP2 protein levels entry with ASPP2 [1] was “decrease in ASPP2 protein levels”; in the assay with ASPP2 [3], “significantly decreased”. In addition, the “transactivation function of p53 when ASPP2 was present” value in assay [2] (p53 + ASPP2) is recorded as “significantly inhibited”. The “transactivation function of p53 alone” value in assay [2] (p53 without ASPP2) is listed as “small effect”. Moreover, the ASPP1 expression levels result with ASPP1 and ASPP2 (setting [4]) is on record as “significantly decreased”. In addition, the ASPP2 expression levels entry in the assay on ASPP1 and ASPP2 (setting [4]) was “significantly decreased”. In the assay with ASPP1 and ASPP2 (MDA Panc3, cycloheximide, presence or absence of UO126), the “Mcl-1 stability (control)” value is “no difference in its stability”.

The values are drawn from patent US20070225240A1, “Screening Assay and Treatment” (priority 2003, published 2007).
